Assay: Biodistribution of 177Lu-labeled αMSH analogues in mice bearing SK-MEL-1 human melanoma
Conditions: male, mouse, total radioactivity; for tissue to tissue ratio at 1 h: 1 h p.i.; for tissue to tissue ratio at 1 h / tissue to tissue ratio at 4 h / tissue to tissue ratio at 24 h / tissue to tissue ratio at 120 h: NRG mice, SK-MEL-1 melanoma; for tissue to tissue ratio at 4 h: 4 h p.i.; for tissue to tissue ratio at 24 h: 24 h p.i.; for tissue to tissue ratio at 120 h: 120 h p.i.
[1] = NRG (NOD.Cg-Rag1tm1Mom I12rgtm1Wjl/SzJ), fat, iv
[2] = NRG (NOD.Cg-Rag1tm1Mom I12rgtm1Wjl/SzJ), seminal glands, iv
[3] = NRG (NOD.Cg-Rag1tm1Mom Il2rgtm1Wjl/SzJ), SK-MEL-1 tumour
[4] = NRG (NOD.Cg-Rag1tm1Mom Il2rgtm1Wjl/SzJ), adrenal glands
[5] = NRG (NOD.Cg-Rag1tm1Mom Il2rgtm1Wjl/SzJ), blood
[6] = NRG (NOD.Cg-Rag1tm1Mom Il2rgtm1Wjl/SzJ), bone
[7] = NRG (NOD.Cg-Rag1tm1Mom Il2rgtm1Wjl/SzJ), brain
[8] = NRG (NOD.Cg-Rag1tm1Mom Il2rgtm1Wjl/SzJ), heart
[9] = NRG (NOD.Cg-Rag1tm1Mom Il2rgtm1Wjl/SzJ), intestine
[10] = NRG (NOD.Cg-Rag1tm1Mom Il2rgtm1Wjl/SzJ), kidneys
[11] = NRG (NOD.Cg-Rag1tm1Mom Il2rgtm1Wjl/SzJ), liver
[12] = NRG (NOD.Cg-Rag1tm1Mom Il2rgtm1Wjl/SzJ), lungs
[13] = NRG (NOD.Cg-Rag1tm1Mom Il2rgtm1Wjl/SzJ), muscle
[14] = NRG (NOD.Cg-Rag1tm1Mom Il2rgtm1Wjl/SzJ), pancreas
[15] = NRG (NOD.Cg-Rag1tm1Mom Il2rgtm1Wjl/SzJ), spleen
[16] = NRG (NOD.Cg-Rag1tm1Mom Il2rgtm1Wjl/SzJ), stomach
[17] = NRG (NOD.Cg-Rag1tm1Mom Il2rgtm1Wjl/SzJ), testes
[18] = NRG (NOD.Cg-Rag1tm1Mom Il2rgtm1Wjl/SzJ), thyroid
[19] = NRG (NOD.Cg-Rag1tm1Mom Il2rgtm1Wjl/SzJ), tumour/blood
[20] = NRG (NOD.Cg-Rag1tm1Mom Il2rgtm1Wjl/SzJ), tumour/kidney
[21] = NRG (NOD.Cg-Rag1tm1Mom Il2rgtm1Wjl/SzJ), tumour/muscle
[22] = NRG (NOD.Cg-Rag1tm1Mom Il2rgtm1Wjl/SzJ), urine

Protocol: The SK-MEL-1 human melanoma cell line (HTB-67) was obtained commercially from ATCC. SK-MEL-1 cells were cultured in Eagle's Minimum Essential Medium (StemCell Technologies) under the same conditions as described in Example 1. Immunodeficient NOD.Cg-Rag1tm1Mom I12rgtm1Wjl/SzJ (NRG) male mice were obtained from an in-house breeding colony at the BC Cancer Research Centre. For tumor implantation, male NRG mice were anesthetized by inhalation with 2% isoflurane, and 5 million SK-MEL-1 cells were inoculated subcutaneously on the right dorsal flank. Mice were used for imaging or biodistribution studies when the tumors reached 6-8 mm in diameter in 16-20 days.
Biodistribution studies were performed as described in Example 3.

## CCCC[C@H](NC(=O)CN1CCC(NC(=O)[C@H](CCCCNC(=O)CN2CCN(CC(=O)O)CCN(CC(=O)O)CCN(CC(=O)O)CC2)NC(=O)CNC(=O)CCCc2ccc(I)cc2)CC1)C(=O)N[C@H]1CC(=O)NCCCC[C@@H](C(N)=O)N(C)C(=O)[C@H](Cc2c[nH]c3ccccc23)NC(=O)[C@H](CCCNC(=N)N)N(C)C(=O)[C@@H](Cc2ccccc2)NC(=O)[C@H](Cc2c[nH]cn2)NC1=O [^177Lu-labeled CCZ01148, metal not drawn]
[1]
  tissue uptake at 1 h: 2.4 ± 0.39 %ID/g
  tissue uptake at 4 h: 2.69 ± 0.38 %ID/g
  tissue uptake at 24 h: 2.1 ± 0.53 %ID/g
  tissue uptake at 120 h: 1.13 ± 0.55 %ID/g
[2]
  tissue uptake at 1 h: 1.81 ± 0.6 %ID/g
  tissue uptake at 4 h: 1.66 ± 0.51 %ID/g
  tissue uptake at 24 h: 1.22 ± 0.11 %ID/g
  tissue uptake at 120 h: 0.44 ± 0.12 %ID/g
[3]
  tissue uptake at 1 h: 6.62 ± 1.37 %ID/g
  tissue uptake at 4 h: 9.46 ± 1.59 %ID/g
  tissue uptake at 24 h: 30.5 ± 2.72 %ID/g
  tissue uptake at 120 h: 26.5 ± 4.52 %ID/g
[4]
  tissue uptake at 1 h: 6.47 ± 2.97 %ID/g
  tissue uptake at 4 h: 5.69 ± 2.19 %ID/g
  tissue uptake at 24 h: 5.66 ± 1.07 %ID/g
  tissue uptake at 120 h: 4.04 ± 1.06 %ID/g
[5]
  tissue uptake at 1 h: 32 ± 5.85 %ID/g
  tissue uptake at 4 h: 22.7 ± 1.5 %ID/g
  tissue uptake at 24 h: 14.7 ± 0.98 %ID/g
  tissue uptake at 120 h: 1.93 ± 0.4 %ID/g
[6]
  tissue uptake at 1 h: 1.98 ± 0.8 %ID/g
  tissue uptake at 4 h: 1.38 ± 0.29 %ID/g
  tissue uptake at 24 h: 1.21 ± 0.2 %ID/g
  tissue uptake at 120 h: 0.49 ± 0.17 %ID/g
[7]
  tissue uptake at 1 h: 0.49 ± 0.06 %ID/g
  tissue uptake at 4 h: 0.39 ± 0.05 %ID/g
  tissue uptake at 24 h: 0.32 ± 0.03 %ID/g
  tissue uptake at 120 h: 0.13 ± 0.02 %ID/g
[8]
  tissue uptake at 1 h: 7.94 ± 1.58 %ID/g
  tissue uptake at 4 h: 5.71 ± 0.51 %ID/g
  tissue uptake at 24 h: 4.57 ± 0.51 %ID/g
  tissue uptake at 120 h: 1.4 ± 0.25 %ID/g
[9]
  tissue uptake at 1 h: 3.1 ± 1 %ID/g
  tissue uptake at 4 h: 2.26 ± 0.56 %ID/g
  tissue uptake at 24 h: 1.89 ± 0.29 %ID/g
  tissue uptake at 120 h: 0.54 ± 0.1 %ID/g
[10]
  tissue uptake at 1 h: 12.5 ± 3.49 %ID/g
  tissue uptake at 4 h: 9.78 ± 1.28 %ID/g
  tissue uptake at 24 h: 9.72 ± 1.38 %ID/g
  tissue uptake at 120 h: 4.08 ± 0.78 %ID/g
[11]
  tissue uptake at 1 h: 7.36 ± 1.58 %ID/g
  tissue uptake at 4 h: 7.11 ± 1.5 %ID/g
  tissue uptake at 24 h: 8.35 ± 1.86 %ID/g
  tissue uptake at 120 h: 4.38 ± 1.08 %ID/g
[12]
  tissue uptake at 1 h: 17.6 ± 5.68 %ID/g
  tissue uptake at 4 h: 11.8 ± 2.51 %ID/g
  tissue uptake at 24 h: 9.06 ± 1.04 %ID/g
  tissue uptake at 120 h: 2.35 ± 0.54 %ID/g
[13]
  tissue uptake at 1 h: 2.13 ± 0.4 %ID/g
  tissue uptake at 4 h: 1.96 ± 0.3 %ID/g
  tissue uptake at 24 h: 1.5 ± 0.19 %ID/g
  tissue uptake at 120 h: 0.31 ± 0.07 %ID/g
[14]
  tissue uptake at 1 h: 3.09 ± 0.53 %ID/g
  tissue uptake at 4 h: 2.55 ± 0.15 %ID/g
  tissue uptake at 24 h: 2.27 ± 0.34 %ID/g
  tissue uptake at 120 h: 0.7 ± 0.13 %ID/g
[15]
  tissue uptake at 1 h: 5.65 ± 1.09 %ID/g
  tissue uptake at 4 h: 4.21 ± 1.31 %ID/g
  tissue uptake at 24 h: 6.19 ± 1 %ID/g
  tissue uptake at 120 h: 6.86 ± 2.08 %ID/g
[16]
  tissue uptake at 1 h: 1.03 ± 0.45 %ID/g
  tissue uptake at 4 h: 1.02 ± 0.53 %ID/g
  tissue uptake at 24 h: 1.44 ± 0.28 %ID/g
  tissue uptake at 120 h: 0.47 ± 0.12 %ID/g
[17]
  tissue uptake at 1 h: 4.23 ± 0.94 %ID/g
  tissue uptake at 4 h: 5.09 ± 0.82 %ID/g
  tissue uptake at 24 h: 4.89 ± 0.87 %ID/g
  tissue uptake at 120 h: 3.03 ± 0.37 %ID/g
[18]
  tissue uptake at 1 h: 7.45 ± 1.35 %ID/g
  tissue uptake at 4 h: 6.83 ± 0.84 %ID/g
  tissue uptake at 24 h: 11.6 ± 1.26 %ID/g
  tissue uptake at 120 h: 12.4 ± 2.26 %ID/g
[19]
  tissue to tissue ratio at 1 h: 0.21 ± 0.02
  tissue to tissue ratio at 4 h: 0.42 ± 0.04
  tissue to tissue ratio at 24 h: 2.08 ± 0.26
[20]
  tissue to tissue ratio at 1 h: 0.54 ± 0.07
  tissue to tissue ratio at 4 h: 0.96 ± 0.04
  tissue to tissue ratio at 24 h: 3.19 ± 0.46
  tissue to tissue ratio at 120 h: 6.57 ± 0.71
[21]
  tissue to tissue ratio at 1 h: 3.11 ± 0.29
  tissue to tissue ratio at 4 h: 4.85 ± 0.53
  tissue to tissue ratio at 24 h: 20.5 ± 2.51
  tissue to tissue ratio at 120 h: 91.3 ± 35.8
[22]
  excreta dose per gram or mL at 1 h: 51 ± 21.8 %ID/g
  excreta dose per gram or mL at 4 h: 11.2 ± 6.54 %ID/g
  excreta dose per gram or mL at 24 h: 20.4 ± 7.69 %ID/g
  excreta dose per gram or mL at 120 h: 6.46 ± 1.57 %ID/g
